Laboratory results taken from publication PMC8632988, “Inhibition of SYK and cSrc kinases can protect bone and cartilage in preclinical models of osteoarthritis and rheumatoid arthritis” (Scientific Reports, 2021).
Where “and” joins values, the source holds several entries; their conditions need not be identical. Identical values can stand only once. Like-named read-outs stand apart in the source and are kept apart here.

What was measured:
[1] = test system: B cells in human whole blood; test: B-cell activation in human whole blood; assay type: cell-based; conditions: anti-IgD stimulation, 16 h, read-out: IC50, BCR-dependent (anti-IgD) activation of B cells
Description: The whole blood assay was performed at N. N. Blokhin National Medical Research Center of Oncology (NMRCO), Russia and approved by NMRCO ethics committee. Informed consent was obtained from all subjects. Red blood cells were lysed by incubation with NH4Cl buffer (0.8% NH4Cl and 0.1% EDTA in distilled water) for 5 min at 37 °C and were precipitated by centrifugation (1500 rpm). The precipitates were resuspended in RPMI-1640 with 10% human serum and 2 mM L-glutamine, after that the cells were again precipitated by analogous centrifugation and resuspended in RPMI-1640. […] Blood was then stained directly with PE-conjugated anti-CD69 (dilution 1:10) and APC-conjugated anti-CD19 (dilution 1:20) antibodies for 20 min at 4 °C. After that cells were precipitated by centrifugation (1500 rpm, 4 °C) and washed twice with phosphate-buffered saline (PBS). The cells were resuspended in PBS containing 1% BSA and subjected to flow cytometry on BD FACS Canto II (BD Biosciences, USA). The number of active cells was estimated as a ratio of CD69-positive cells bearing a marker of CD19 cells, or as a mean fluorescence intensity (MFI) of CD69 + cells after gating on the CD19-positive cells. For dose–response curve see Fig. S2.

[2] = Pharmacokinetics after single oral administration to rabbits; assay type: in vivo, rabbit; conditions: single oral 50 mg/kg
Description: (§1) Experiments were performed at ChemPartner, Shanghai, China and approved by Institutional Ethics Committee (IEC) of ChemPartner. Male Wistar 10–12 weeks old rats with body weights of 185–220 g and male New Zealand rabbits with body weights of 2.0–2.3 kg were purchased from Shanghai SLAC Laboratory Animal Co., Ltd. MT-SYK-03 was administered to the three groups of rats (six rats per group) via oral gavage at 10 mL/kg concentration, and in rabbits 5 mL/kg concentration. Blood samples were kept on ice and centrifuged (2000 g, 4 ℃, 5 min) within 15 min post sampling.

SYK = SYK (Homo sapiens, UniProt P43405); test: Kinase selectivity profile assay; assay type: biochemical; set-up: purchased Reaction Biology Corporation; conditions: 500 nM; relative to DMSO; read-out: Residual enzymatic activity
Source text: Kinase activity data was expressed as the percent remaining kinase activity in test samples compared to vehicle (dimethyl sulfoxide) reactions based on the radioactivity of reaction products (see Table S2). Experiment was replicated twice.

[3] = Pharmacokinetics after single oral administration to rats; assay type: in vivo, rat; conditions: male Wistar rats; for AUCINF / AUClast / Cmax / Terminal t1/2 / concentration at 0.25 h / concentration at 0.5 h / concentration at 1 h / concentration at 2 h / concentration at 4 h / concentration at 8 h / concentration at 24 h / concentration at 48 h: plasma; for concentration at 0.25 h / concentration at 0.5 h / concentration at 1 h / concentration at 2 h / concentration at 4 h / concentration at 8 h / concentration at 24 h / concentration at 48 h: male, Wistar, rat, oral
Description: as §1

[4] = male, New Zealand, rabbit, plasma
[5] = Table S6, 100 mg/kg PO, individual Rat#1-6
[6] = Table S7, 100 mg/kg PO, individual Rat#7-12
[7] = Table S8, 200 mg/kg PO, individual Rat#13-18

COc1cc(Nc2ncnc(Nc3cc4c(cn3)NC(=O)C(C)(C)O4)n2)cc(OC)c1OC [MT-SYK-03]
IC50 [1]: 550 nM | AUC(0-inf) [2, 4]: 121000 ng·h/mL | Cmax [2, 4]: 8570 ng/mL and 14.1 µM | Tmax [2, 4]: 6 ± 2.19 h | k el [2, 4]: 2.67e-05 s⁻¹ | AUC ([2]; male, New Zealand, rabbit, plasma, read-out: AUC48): 119000 ng·h/mL | MRT24 [2]: 9.2 ± 0.66 h | τ1/2 [2]: 7.41 ± 1.32 h | remaining activity at 0.5 µM (SYK): 57.4% | Plasma concentration ([3]; Table S6, 100 mg/kg PO, 0.25 h, individual Rat#1-6): 257 ng/mL and 127 ng/mL and 313 ng/mL and 251 ng/mL and 240 ng/mL and 283 ng/mL | Plasma concentration ([3]; Table S6, 100 mg/kg PO, 0.5 h, individual Rat#1-6): 331 ng/mL and 166 ng/mL and 419 ng/mL and 280 ng/mL and 345 ng/mL and 375 ng/mL | Plasma concentration ([3]; Table S6, 100 mg/kg PO, 1 h, individual Rat#1-6): 470 ng/mL and 220 ng/mL and 487 ng/mL and 367 ng/mL and 392 ng/mL and 483 ng/mL | Plasma concentration ([3]; Table S6, 100 mg/kg PO, 2 h, individual Rat#1-6): 529 ng/mL and 209 ng/mL and 501 ng/mL and 372 ng/mL and 256 ng/mL and 359 ng/mL | Plasma concentration ([3]; Table S6, 100 mg/kg PO, 4 h, individual Rat#1-6): 196 ng/mL and 78.0 ng/mL and 171 ng/mL and 170 ng/mL and 226 ng/mL and 206 ng/mL | Plasma concentration ([3]; Table S6, 100 mg/kg PO, 8 h, individual Rat#1-6): 47.2 ng/mL and 31.2 ng/mL and 92.6 ng/mL and 41.6 ng/mL and 88.8 ng/mL and 43.5 ng/mL | Plasma concentration ([3]; Table S6, 100 mg/kg PO, 24 h, individual Rat#1-6): 0.818 ng/mL and BQL (2×) and 17.7 ng/mL and 1.57 ng/mL and 16.5 ng/mL | Plasma concentration ([3]; Table S6, 100 mg/kg PO, 48 h, individual Rat#1-6): BQL (4×) and 1.55 ng/mL | AUCINF [3, 5]: 2434 ng·h/mL and 971 ng·h/mL and 3948 ng·h/mL and 2253 ng·h/mL and 2452 ng·h/mL and 2451 ng·h/mL | AUClast [3, 5]: 2423 ng·h/mL and 869 ng·h/mL and 3933 ng·h/mL and 2069 ng·h/mL and 2446 ng·h/mL and 2297 ng·h/mL | Cmax [3, 5]: 529 ng/mL and 220 ng/mL and 501 ng/mL and 372 ng/mL and 392 ng/mL and 483 ng/mL | Terminal t1/2 [3, 5]: 7.83 h and 2.28 h and 6.60 h and 7.22 h and 2.78 h and 6.45 h | Plasma concentration ([3]; Table S7, 100 mg/kg PO, 8 h, individual Rat#7-12): 87.7 ng/mL and 152 ng/mL and 64.3 ng/mL and 178 ng/mL and 89.2 ng/mL and 82.6 ng/mL | Plasma concentration ([3]; Table S7, 100 mg/kg PO, 24 h, individual Rat#7-12): 32.8 ng/mL and 4.94 ng/mL and 6.04 ng/mL and 1.11 ng/mL and 1.56 ng/mL | Plasma concentration ([3]; Table S7, 100 mg/kg PO, 48 h, individual Rat#7-12): BQL | AUCINF [3, 6]: 4850 ng·h/mL and 3276 ng·h/mL and 4883 ng·h/mL and 4456 ng·h/mL and 3930 ng·h/mL | AUClast [3, 6]: 4843 ng·h/mL and 3238 ng·h/mL and 4878 ng·h/mL and 4452 ng·h/mL and 3910 ng·h/mL | Cmax [3, 6]: 1030 ng/mL and 770 ng/mL and 859 ng/mL and 876 ng/mL and 824 ng/mL | Terminal t1/2 [3, 6]: 5.58 h and 4.86 h and 3.71 h and 2.36 h and 2.34 h and 5.52 h | Plasma concentration ([3]; Table S8, 200 mg/kg PO, 48 h, individual Rat#13-18): BQL | AUCINF [3, 7]: 6063 ng·h/mL and 6845 ng·h/mL and 7115 ng·h/mL and 6299 ng·h/mL and 10096 ng·h/mL | AUClast [3, 7]: 6055 ng·h/mL and 6836 ng·h/mL and 7107 ng·h/mL and 6076 ng·h/mL and 10087 ng·h/mL | Cmax [3, 7]: 1430 ng/mL and 1360 ng/mL and 1370 ng/mL and 998 ng/mL and 1320 ng/mL | Terminal t1/2 [3, 7]: 6.31 h and 5.70 h and 2.52 h and 2.40 h and 8.67 h and 4.91 h | concentration at 0.25 h ([3]; 100 mg/kg, Table S6, 100 mg/kg PO, 0.25 h, mean of Rat#1-6, read-out: Plasma concentration, Mean): 245 ng/mL | concentration at 0.5 h ([3]; 100 mg/kg, Table S6, 100 mg/kg PO, 0.5 h, mean of Rat#1-6, read-out: Plasma concentration, Mean): 319 ng/mL | concentration at 1 h ([3]; 100 mg/kg, Table S6, 100 mg/kg PO, 1 h, mean of Rat#1-6, read-out: Plasma concentration, Mean): 403 ng/mL | concentration at 2 h ([3]; 100 mg/kg, Table S6, 100 mg/kg PO, 2 h, mean of Rat#1-6, read-out: Plasma concentration, Mean): 371 ng/mL | concentration at 4 h ([3]; 100 mg/kg, Table S6, 100 mg/kg PO, 4 h, mean of Rat#1-6): 175 ng/mL | concentration at 8 h ([3]; 100 mg/kg, Table S6, 100 mg/kg PO, 8 h, mean of Rat#1-6): 57.5 ng/mL | concentration at 24 h ([3]; 100 mg/kg, Table S6, 100 mg/kg PO, 24 h, mean of Rat#1-6): 9.15 ng/mL | concentration at 48 h ([3]; 100 mg/kg, Table S6, 100 mg/kg PO, 48 h, individual Rat#1-6, read-out: Plasma concentration): 0.984 ng/mL | concentration at 48 h ([3]; 100 mg/kg, Table S6, 100 mg/kg PO, 48 h, mean of Rat#1-6, read-out: Plasma concentration, Mean): 1.27 ng/mL | concentration at 0.25 h ([3]; 100 mg/kg, Table S7, 100 mg/kg PO, 0.25 h, individual Rat#7-12, read-out: Plasma concentration): 400 ng/mL | concentration at 0.25 h ([3]; 100 mg/kg, Table S7, 100 mg/kg PO, 0.25 h, mean of Rat#7-12, read-out: Plasma concentration, Mean): 415 ng/mL | concentration at 0.5 h ([3]; 100 mg/kg, Table S7, 100 mg/kg PO, 0.5 h, individual Rat#7-12, read-out: Plasma concentration): 716 ng/mL | concentration at 0.5 h ([3]; 100 mg/kg, Table S7, 100 mg/kg PO, 0.5 h, mean of Rat#7-12, read-out: Plasma concentration, Mean): 679 ng/mL | concentration at 1 h ([3]; 100 mg/kg, Table S7, 100 mg/kg PO, 1 h, individual Rat#7-12, read-out: Plasma concentration): 830 ng/mL | concentration at 1 h ([3]; 100 mg/kg, Table S7, 100 mg/kg PO, 1 h, mean of Rat#7-12, read-out: Plasma concentration, Mean): 870 ng/mL | concentration at 2 h ([3]; 100 mg/kg, Table S7, 100 mg/kg PO, 2 h, individual Rat#7-12, read-out: Plasma concentration): 519 ng/mL | concentration at 2 h ([3]; 100 mg/kg, Table S7, 100 mg/kg PO, 2 h, mean of Rat#7-12, read-out: Plasma concentration, Mean): 602 ng/mL | concentration at 4 h ([3]; 100 mg/kg, Table S7, 100 mg/kg PO, 4 h, mean of Rat#7-12): 384 ng/mL | concentration at 8 h ([3]; 100 mg/kg, Table S7, 100 mg/kg PO, 8 h, mean of Rat#7-12): 109 ng/mL | concentration at 24 h ([3]; 100 mg/kg, Table S7, 100 mg/kg PO, 24 h, mean of Rat#7-12): 8 ng/mL | concentration at 48 h ([3]; 100 mg/kg, Table S7, 100 mg/kg PO, 48 h, mean of Rat#7-12, read-out: Plasma concentration, Mean): 1.79 ng/mL | concentration at 0.25 h ([3]; 200 mg/kg, Table S8, 200 mg/kg PO, 0.25 h, individual Rat#13-18, read-out: Plasma concentration): 489 ng/mL | concentration at 0.25 h ([3]; 200 mg/kg, Table S8, 200 mg/kg PO, 0.25 h, mean of Rat#13-18, read-out: Plasma concentration, Mean): 425 ng/mL
